From patent US9833497B2, “Human originated EGF domain proteins and use of the same” (CHENGDU SOURCEBIO LIMITED-LIABILITY COMPANY, priority 2013, dated 2017)

Columns and labels:
Type in all cases: cell-based
E. coli DH5α = assay: Antibacterial activity: MIC and growth curve against E. coli DH5α in 96-well plate; details: minimal inhibitory concentration against E. coli DH5α; 96-well plate, 5×10^5 CFU/mL, 37° C., judged after 8 h
Method in brief: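 Log-phase DH5α (OD600 about 0.5, 37° C, 185 rpm in LB) was pelleted, resuspended in fresh LB and seeded at 5×10^5 CFU/mL with recombinant protein at 50, 25 and 12.5 μg/mL (two-fold series), in triplicate. Plates were shaken at 175 rpm, 37° C, and OD600 was read every 30 min. MIC was the lowest concentration with no growth.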

E. coli BL21 = assay: MIC against Gram-negative bacteria: E. coli BL21; details: 5×10^5 CFU/mL
Method in brief: (§1)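 Inocula prepared by growing LB cultures at 37° C to 0.5 McFarland, centrifuging at 4000×g, and resuspending in fresh medium. Final density 5×10^5 CFU/mL per well with two-fold dilutions of purified EGF domain protein; shaking incubation at 37° C.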

Pseudomonas aeruginosa = assay: MIC against Gram-negative bacteria: Pseudomonas aeruginosa; details: 5×10^5 CFU/mL
Method in brief: as §1

Klebsiella pneumonia = assay: MIC against Gram-negative bacteria: Klebsiella pneumonia; details: 5×10^5 CFU/mL
Method in brief: as §1

Enterobacter cloacae = assay: MIC against Gram-negative bacteria: Enterobacter cloacae; details: 5×10^5 CFU/mL
Method in brief: as §1

Aeromonas hydrophila = assay: MIC against Gram-negative bacteria: Aeromonas hydrophila; details: 5×10^5 CFU/mL
Method in brief: as §1

Citrobacter diversus = assay: MIC against Gram-negative bacteria: Citrobacter diversus; details: 5×10^5 CFU/mL
Method in brief: as §1

Moraxella catarrhalis = assay: MIC against Gram-negative bacteria: Moraxella catarrhalis; details: 5×10^5 CFU/mL
Method in brief: as §1

Proteus mirabilis = assay: MIC against Gram-negative bacteria: Proteus mirabilis; details: 5×10^5 CFU/mL
Method in brief: as §1

Proteus vulgaris = assay: MIC against Gram-negative bacteria: Proteus vulgaris; details: 5×10^5 CFU/mL
Method in brief: as §1

Serratia marcescens = assay: MIC against Gram-negative bacteria: Serratia marcescens; details: 5×10^5 CFU/mL
Method in brief: as §1

[1] = E. coli BL21, 10 h cultivation at 37° C.
[2] = Pseudomonas aeruginosa, 10 h cultivation at 37° C.
[3] = Klebsiella pneumonia, 10 h cultivation at 37° C.
[4] = Enterobacter cloacae, 10 h cultivation at 37° C.
[5] = Aeromonas hydrophila, 10 h cultivation at 37° C.
[6] = Citrobacter diversus, 10 h cultivation at 37° C.
[7] = Moraxella catarrhalis, 10 h cultivation at 37° C.
[8] = Proteus mirabilis, 10 h cultivation at 37° C.
[9] = Proteus vulgaris, 10 h cultivation at 37° C.
[10] = Serratia marcescens, 10 h cultivation at 37° C.

Row | Substance | MIC (E. coli DH5α) [µg/mL] | MIC (μg/mL) E. coli BL21 (E. coli BL21; [1]) [µg/mL] | MIC (μg/mL) P. aeruginosa (Pseudomonas aeruginosa; 10 h cultivation at 37° C.) [µg/mL] | MIC (μg/mL) K. pneumonia (Klebsiella pneumonia; 10 h cultivation at 37° C.) [µg/mL] | MIC (μg/mL) E. cloacae (Enterobacter cloacae; 10 h cultivation at 37° C.) [µg/mL] | MIC (μg/mL) A. hydrophila (Aeromonas hydrophila; 10 h cultivation at 37° C.) [µg/mL] | MIC (μg/mL) C. diversus (Citrobacter diversus; 10 h cultivation at 37° C.) [µg/mL] | MIC (μg/mL) M. catarrhalis (Moraxella catarrhalis; 10 h cultivation at 37° C.) [µg/mL] | MIC (μg/mL) P. mirabilis (Proteus mirabilis; 10 h cultivation at 37° C.) [µg/mL] | MIC (μg/mL) P. vulgaris (Proteus vulgaris; 10 h cultivation at 37° C.) [µg/mL] | MIC (μg/mL) S. marcescens (Serratia marcescens; 10 h cultivation at 37° C.) [µg/mL] | MIC against E. coli BL21 (E. coli BL21; [1]) [µg/mL] | MIC against P. aeruginosa (Pseudomonas aeruginosa; [2]) [µg/mL] | MIC against K. pneumonia (Klebsiella pneumonia; [3]) [µg/mL] | MIC against E. cloacae (Enterobacter cloacae; [4]) [µg/mL] | MIC against A. hydrophila (Aeromonas hydrophila; [5]) [µg/mL] | MIC against C. diversus (Citrobacter diversus; [6]) [µg/mL] | MIC against M. catarrhalis (Moraxella catarrhalis; [7]) [µg/mL] | MIC against P. mirabilis (Proteus mirabilis; [8]) [µg/mL] | MIC against P. vulgaris (Proteus vulgaris; [9]) [µg/mL] | other results
1 | PRT832 (DVDECAAGLAQCAHGCLNTQGSFKCVCHAGYELGADGRQCY; listed as Homo sapiens) | 50 | 12.5 | 12.5 | 12.5 | 25 | 12.5 | 25 | 12.5 | 12.5 | 25 | 12.5 | – | – | – | – | – | – | – | – | – | –
2 | PRT569 (CDCDLGGALNNSCFAESGQCSCRPHMIGRQC; listed as Homo sapiens) | 25 | – | – | – | – | – | – | – | – | – | – | – | – | – | – | – | – | – | – | – | MIC against E. coli BL21 (E. coli BL21; 96-well plate, 37° C., 10 h): 12.5 µg/mL; MIC against P. aeruginosa (Pseudomonas aeruginosa; 96-well plate, 37° C., 10 h): 25 µg/mL; MIC against K. pneumonia (Klebsiella pneumonia; 96-well plate, 37° C., 10 h): 12.5 µg/mL; MIC against E. cloacae (Enterobacter cloacae; 96-well plate, 37° C., 10 h): 12.5 µg/mL; MIC against A. hydrophila (Aeromonas hydrophila; 96-well plate, 37° C., 10 h): 25 µg/mL; MIC against C. diversus (Citrobacter diversus; 96-well plate, 37° C., 10 h): 100 µg/mL; MIC against M. catarrhalis (Moraxella catarrhalis; 96-well plate, 37° C., 10 h): 25 µg/mL; MIC against P. mirabilis (Proteus mirabilis; 96-well plate, 37° C., 10 h): 12.5 µg/mL; MIC against P. vulgaris (Proteus vulgaris; 96-well plate, 37° C., 10 h): 25 µg/mL; MIC against S. marcescens (Serratia marcescens; 96-well plate, 37° C., 10 h): 12.5 µg/mL
3 | PRT1355 (AELSCPNDCHGQGRCVNGQCVCHEGFMGKDCK; listed as Homo sapiens) | 50 | – | – | – | – | – | – | – | – | – | – | 25 | 12.5 | 25 | 50 | 12.5 | 50 | 12.5 | 25 | 50 | MIC against S. marcescens (Serratia marcescens; [10]): 25 µg/mL
4 | PRT1461 (CNCNTSGTVDGDITCHQNSGQCKCKANVIGLRCDHCNFGFKFLRSFNDVGCEP; listed as Homo sapiens) | 25 | – | – | – | – | – | – | – | – | – | – | 12.5 | 50 | 12.5 | 25 | 12.5 | 25 | 12.5 | 25 | 12.5 | MIC against S. marcescens (Serratia marcescens; [10]): 25 µg/mL
5 | PRT220 (DINECETTNECREDEMCWNYHGGFRCYPRNPCQDPYILTPENRCV; listed as Homo sapiens) | 25 | 25 | 12.5 | 25 | 12.5 | 25 | 12.5 | 12.5 | 12.5 | 12.5 | 50 | – | – | – | – | – | – | – | – | – | –
